These results are taken from PMC3509069, “A DKP Cyclo(L-Phe-L-Phe) Found in Chicken Essence Is a Dual Inhibitor of the Serotonin Transporter and Acetylcholinesterase” (PLoS ONE, 2012).

In this assay the target is T1, acetylcholinesterase (AChE) (Homo sapiens, UniProt P22303).
T1 construct: amphiphilic form from human erythrocytes
The experiment in a line: colorimetric AChE assay with MATP+ substrate. Format: biochemical.

Broadly, the IC50 is the point on the concentration scale where inhibition reaches its midpoint. A high value points to weaker potency in that assay.

T1 sequence (P22303 other isoform, or with tags, fused parts or gaps): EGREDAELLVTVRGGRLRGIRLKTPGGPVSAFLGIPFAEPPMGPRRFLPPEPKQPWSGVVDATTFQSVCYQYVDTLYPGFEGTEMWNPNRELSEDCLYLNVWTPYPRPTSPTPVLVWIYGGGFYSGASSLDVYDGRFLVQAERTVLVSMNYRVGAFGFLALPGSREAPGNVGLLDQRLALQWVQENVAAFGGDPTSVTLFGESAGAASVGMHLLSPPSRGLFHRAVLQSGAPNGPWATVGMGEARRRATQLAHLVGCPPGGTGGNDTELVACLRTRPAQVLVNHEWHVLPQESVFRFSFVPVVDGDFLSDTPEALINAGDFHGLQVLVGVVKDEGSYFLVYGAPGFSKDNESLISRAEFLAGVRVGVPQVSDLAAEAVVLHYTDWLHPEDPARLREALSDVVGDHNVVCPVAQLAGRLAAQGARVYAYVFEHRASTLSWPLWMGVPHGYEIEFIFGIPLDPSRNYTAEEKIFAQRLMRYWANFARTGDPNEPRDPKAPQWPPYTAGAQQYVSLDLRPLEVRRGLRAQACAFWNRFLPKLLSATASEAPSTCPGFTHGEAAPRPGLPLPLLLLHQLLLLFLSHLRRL

With `O=C1NC(Cc2ccccc2)C(=O)NC1Cc1ccccc1` [cyclo(L-Phe-L-Phe)], the concentration for half-maximal inhibition (IC50) is roughly 3.4 µM.

As for `O=C1[C@@H]2CCCN2C(=O)[C@@H]2CCCN12` [cyclo(L-Pro-L-Pro)], it took 160 µM to reach half-maximal inhibition (IC50).
